Key:
Apoptosome = target: T1, Apoptosome (Homo sapiens, UniProt O14727); assay: Apoptosome activity assay; type: biochemical; details: reconstituted in vitro; MM01 5 µM (Figure 2C)
T1 sequence (O14727 1-1248): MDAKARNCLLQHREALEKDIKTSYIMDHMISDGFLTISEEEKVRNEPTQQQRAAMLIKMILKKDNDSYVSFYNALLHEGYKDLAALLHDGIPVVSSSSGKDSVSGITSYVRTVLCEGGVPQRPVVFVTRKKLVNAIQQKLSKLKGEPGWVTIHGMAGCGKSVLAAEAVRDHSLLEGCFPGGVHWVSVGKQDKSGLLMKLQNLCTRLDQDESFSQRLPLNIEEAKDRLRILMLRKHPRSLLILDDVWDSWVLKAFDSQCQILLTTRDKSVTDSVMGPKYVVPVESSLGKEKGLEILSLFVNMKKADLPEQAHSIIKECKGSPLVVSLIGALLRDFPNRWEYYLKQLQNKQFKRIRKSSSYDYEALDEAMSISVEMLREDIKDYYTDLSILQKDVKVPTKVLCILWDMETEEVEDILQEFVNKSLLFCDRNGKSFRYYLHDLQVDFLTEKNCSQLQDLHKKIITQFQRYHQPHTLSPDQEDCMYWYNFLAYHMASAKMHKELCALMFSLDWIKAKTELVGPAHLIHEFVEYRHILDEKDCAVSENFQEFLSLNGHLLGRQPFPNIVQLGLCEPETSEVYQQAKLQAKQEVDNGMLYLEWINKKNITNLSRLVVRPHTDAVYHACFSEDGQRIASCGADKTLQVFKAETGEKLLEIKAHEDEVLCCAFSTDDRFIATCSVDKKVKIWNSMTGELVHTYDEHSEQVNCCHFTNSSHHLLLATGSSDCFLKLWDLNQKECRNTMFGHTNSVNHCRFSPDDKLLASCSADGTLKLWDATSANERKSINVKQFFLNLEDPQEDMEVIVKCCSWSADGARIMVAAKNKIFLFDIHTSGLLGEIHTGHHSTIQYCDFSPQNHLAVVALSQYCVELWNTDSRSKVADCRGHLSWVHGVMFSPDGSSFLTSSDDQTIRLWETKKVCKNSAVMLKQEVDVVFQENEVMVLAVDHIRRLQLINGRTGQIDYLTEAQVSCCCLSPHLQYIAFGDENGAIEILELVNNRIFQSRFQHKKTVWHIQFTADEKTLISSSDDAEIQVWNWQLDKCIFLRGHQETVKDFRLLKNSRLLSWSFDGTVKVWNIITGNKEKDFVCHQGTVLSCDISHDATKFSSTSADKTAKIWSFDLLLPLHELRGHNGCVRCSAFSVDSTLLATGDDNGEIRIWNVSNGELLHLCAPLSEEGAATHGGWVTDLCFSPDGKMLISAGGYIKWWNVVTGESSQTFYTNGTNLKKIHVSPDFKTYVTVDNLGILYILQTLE
Description: Apoptosome was reconstituted by incubating rApaf-1 (100 nM) with vehicle (DMSO) or compounds in assay buffer (20 mM HEPES, 10 mMKCI, 1.5 mM MgCI2, 1 mM EDTA, 1 mM EGTA, 1 mM DTT, 0.1 mM PMSF) at 30°C for 30 min. Next, 100 µM dATP and 100 nM Cytc were added and incubated for additional 40 min. Then, caspase-9 (100 nM) was added, and activity was monitored by the Ac-LEHD-afc substrate (50 µM) using a Victor 2 spectrofluorimeter.

caspase-9 = target: T2, caspase-9 (Homo sapiens, UniProt P55211); assay: caspase-9 activity assay (Na-citrate pre-activated); type: biochemical; details: recombinant caspase-9; MM01 5 µM (Figure 2B)
T2 sequence (P55211 1-416): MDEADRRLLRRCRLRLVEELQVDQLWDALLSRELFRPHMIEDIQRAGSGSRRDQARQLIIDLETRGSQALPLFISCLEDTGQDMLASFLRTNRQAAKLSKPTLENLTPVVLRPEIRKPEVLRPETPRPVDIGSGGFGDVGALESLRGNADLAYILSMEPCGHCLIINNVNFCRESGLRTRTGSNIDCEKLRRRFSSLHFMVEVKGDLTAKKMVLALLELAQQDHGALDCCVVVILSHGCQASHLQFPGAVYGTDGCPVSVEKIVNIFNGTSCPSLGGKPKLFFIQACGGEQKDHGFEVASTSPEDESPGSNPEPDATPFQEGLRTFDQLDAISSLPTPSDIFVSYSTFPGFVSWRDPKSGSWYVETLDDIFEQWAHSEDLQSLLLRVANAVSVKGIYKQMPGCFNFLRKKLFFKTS
Description: Caspase-9 was activated with kosmotropic salts, in particular with Na-citrate. Briefly, 5 µM caspase-9 was pre-activated for 20 min in SC buffer (50 mM Na2HPO4, 150 mM NaCl, 1.5% sucrose, 0.05% CHAPS, 10 mM DTT, 0.7 M Na-citrate, pH 7.4) at RT. Once pre-activated, the complete reaction was diluted to 100 nM caspase-9 in assay buffer without Na-Citrate and incubated 20 min at RT in the presence or absence of compounds. Enzyme activity was monitored by adding the Ac-LEHD-afc substrate (40 µM) using a Victor 2 spectrofluorimeter.

[1] = test system: NLRP3 activation in MSU-induced peritonitis; assay: MSU-induced peritonitis mouse model; type: in vivo, C57BL/6 mice; details: 10 mg/kg i.p. 30 min before MSU 2 mg/mouse i.p.
Description: We next evaluated the efficacy of MM01 in a murine MSU-induced peritonitis model. (Spalinger MR et al. Bio-protocol 2018; 8(5): e2754). Mono-sodium urate (MSU; InvivoGen) crystals are potent activators of the NLRP3 receptor. Upon activation, NLRP3 induces the formation of inflammasome complex, which lead to the production and release of mature IL-1β. In the early phase of peritonitis, the number of infiltrating neutrophils correlates with the production of mature IL-1β. MM01 was injected intraperitoneal 30 min before MSU crystals i.p. injection.
In vivo model was performed according to the protocol approved by the Institutional Animal Ethical Committee of CIPF. C57BL/6 mice were injected i.p. with 10 mg/kg MM01 or vehicle 30 min before i.p. injection of MSU (2 mg MSU crystals in 200 µl sterile PBS). After 6 h, mice were sacrificed, and peritoneal lavage with 5 ml of PBS was performed. Cytokine IL-1β secretion was determined by ELISA (#DY401 R&D Systems) and neutrophil content measured in ACVLAB Laboratorio Valencia.

In the case of C=CCN1C(=O)/C(=C2/C(=O)Nc3ccccc32)SC1=S [MM01], the “inhibition of the apoptosome” value (Apoptosome) is reported as “No inhibition”, the caspase-9 activity (caspase-9) is reported as “do not act on” and the neutrophil recruitment ([1]; peritoneal cavity after 6 h) is reported as “efficiently suppressed”. The “MSU injection-induced IL-1β production” value ([1]; peritoneal lavage after 6 h, ELISA) was “efficiently suppressed”.
